# According to ChEMBL document CHEMBL1121920, “Synthesis and biological evaluation of the methyl esters of (+)-12-fluoro-13,14-dihydroprostaglandin F2alpha and (+)-15-epi-12-fluoro-13,14-dihydroprostaglandin F2alpha” (1981):
# Key:
# [1] = test system: Gerbillinae; experiment: Compound was evaluated for gerbil colon contraction relative to PGF2-alpha; type: functional
# [2] = test system: Cricetinae gen. sp.; experiment: Compound was evaluated for uterine contraction relative to PGF2-alpha in hamsters; type: functional, hamster
SMILES,Potency [1],Potency [2]
CCCCC[C@H](O)CC[C@@]1(F)[C@H](O)C[C@H](O)[C@@H]1C/C=C\CCCC(=O)OC,0.004,0.016
CCCCC[C@@H](O)CC[C@@]1(F)[C@H](O)C[C@H](O)[C@@H]1C/C=C\CCCC(=O)OC,0.001,0.005
CCCCC[C@H](O)CC[C@@H]1[C@@H](C/C=C\CCCC(=O)OC)[C@@H](O)C[C@H]1O,0.11,0.95
CCCCC[C@H](O)/C=C/[C@@]1(F)[C@H](O)C[C@H](O)[C@@H]1C/C=C\CCCC(=O)OC,0.001,0.28
CCCCC[C@@H](O)/C=C/[C@@]1(F)[C@H](O)C[C@H](O)[C@@H]1C/C=C\CCCC(=O)OC,0.011,0.022
CCCCC[C@H](O)/C=C/[C@@H]1[C@@H](C/C=C\CCCC(=O)O)[C@@H](O)C[C@H]1O [DINOPROST],1,1
